Literature values in patent publication US20130345262A1, “METHOD FOR PREVENTION OF STROKE” (BOEHRINGER INGELHEIM INTERNATIONAL GMBH, priority 2012, published 2013).

System: patients who have nonvalvular atrial fibrillation
Conditions: patients with nonvalvular atrial fibrillation

CC(=O)CC(c1ccccc1)c1c(O)c2ccccc2oc1=O (racemic) [warfarin, 3-(α-acetonylbenzyl)4-hydroxycoumarin]
reduction of the risk of stroke compared to placebo: about 64%
